Our source for the melting point values is patent US20060014806A1 (published 2006).

What is called melting point is the temperature, or range, at which the solid turns liquid.

SMILES strings stand for the structures.

Compound `CO/N=C1/C=C(c2ccc(OCCCOc3c(Cl)cc(OCC=C(Cl)Cl)cc3Cl)cc2)CC1` yielded a melting point of 100 to 103 °C. The same measure for `CC(C)NC(=O)/C(C#N)=C/c1ccc(OCCCOc2c(Cl)cc(OCC=C(Cl)Cl)cc2Cl)cc1`: 88 to 93 °C. As for `COC(=O)NCC#Cc1ccc(OCCCOc2c(Cl)cc(OCC=C(Cl)Cl)cc2Cl)cc1`, the figure is 78 to 81 °C.
